In ChEMBL document CHEMBL1149967, “Synthesis and antitumor activity of novel distamycin derivatives” (Bioorg Med Chem Lett, 1996):

What was measured:
[1] = test system: Mus musculus; assay: In vivo inhibition of L1210 murine leukemia, expressed as optimal non toxic dose (CD2F1 mice were given an injection of […] i.p. and treated on day 1); format: functional
[2] = test system: L1210; assay: In vitro inhibition of L1210 murine leukemia (Drug sensitivity was determined by counting surviving cells after 48 hr of continuous exposure to at least 4 conc. of drug); format: functional, cell-based; conditions: Mus musculus, L1210, 48 h

Structure (SMILES)	OD [1] [mg/kg]	IC50 [2] [µg/mL]
C=C(Br)C(=O)Nc1cn(C)c(C(=O)Nc2cc(C(=O)Nc3cc(C(=O)Nc4cc(C(=O)NCCC(=N)N)n(C)c4)n(C)c3)n(C)c2)n1.Cl	6.25	
Cl.Cn1cc(NC(=O)c2cc(NC(=O)c3cc(NC(=O)c4ccc(N(CCCl)CCCl)cc4)cn3C)cn2C)cc1C(=O)NCCC(=N)N [TALLIMUSTINE CHLORIDE]	3.13	
Cl.Cn1cc(NC(=O)c2cc(NC(=O)c3cc(NC(=O)c4cc(NC(=O)c5ccc(N(CCCl)CCCl)cc5)nn4C)cn3C)cn2C)cc1C(=O)NCCC(=N)N	3.13	0.0291
C=C(Br)C(=O)Nc1cc(C(=O)Nc2cc(C(=O)Nc3cc(C(=O)Nc4cc(C(=O)NCCC(=N)N)n(C)c4)n(C)c3)n(C)c2)n(C)n1.Cl	6.25	
Cl.Cn1cc(NC(=O)c2cc(NC(=O)c3cc(NC(=O)c4nc(NC(=O)c5ccc(N(CCCl)CCCl)cc5)cn4C)cn3C)cn2C)cc1C(=O)NCCC(=N)N	6.25	2
